In patent US20140017242A1, “ANTI-BRADYKININ B2 RECEPTOR (BKB2R) MONOCLONAL ANTIBODY” (Diamedica, Inc., priority 2010, published 2014):
Where no end group is shown, it is not given here.

Columns and labels:
BxPC-3 = test: MTT Cell Proliferation Assay, BxPC-3; assay type: cell-based, human; conditions: 120 hours of exposure
Source text: (§1) This Example describes characterization of the cytotoxic activity of herein described anti-BKB2R monoclonal antibodies against a panel of cancer cell lines. BxPC-3 is a human adenocarcinoma cell line originally isolated from the pancreas (pancreatic cancer) (ATCC # CRL-1687; Tan et al., Cancer Invest. 4: 15-23, 1986. PubMed: 3754176). MV-4-11 is a human biphenotypic B myelomonocytic leukemia (mixed-lineage leukemia, MLL-AF4) cell line originally isolated from the peripheral blood (ATCC # CRL-959; Lange et al., Blood 70: 192-199, 1987. PubMed: 3496132). Hep G2 is a human hepatocellular carcinoma cell line isolated from the liver (liver cancer) (ATCC # HB-8065; Aden et al., Nature 282: 615-616, 1979. PubMed: 233137). RS4;11 is a human acute lymphoblastic leukemia (mixed-lineage leukemia, MLL-AF4) cell line isolated from the bone marrow (ATTC # CRL-1873) Stong et al., Blood 65: 21-31, 1985. PubMed: 3917311). HT-29 is a human colorectal adenocarcinoma (ATTC # HTB-38) cell line isolated from the colon (colon cancer). Fogh et al., J. Natl. Cancer Inst. 58: 209-214, 1977. PubMed: 833871). NUGC-4 is a human stomach carcinoma isolated from the stomach paragastiric lymph node (JCRB # JCRB0834; Akiyama et al., Jpn. J. Surg., 18: 438-446, 1988). […]
(§2) The anti-proliferative activity of test compounds against the indicated cell lines was evaluated in vitro using the ATCC's MTT Cell Proliferation Assay (Catalog No. 30-1010K). After the 120 hour incubation with drug (e.g., anti-BKB2R mAb or cisplatin), cell proliferation was measured by addition of MTT reagent to each well and incubation for an additional 4 hrs. […] Optical absorbance (570 nm) of the test wells was measured and then quantitated relative to control wells that received no drug. Results were expressed as percent inhibition versus compound concentration and graphed, as shown in FIGS. 19-25, for cell lines BxPC-3, MV-4;11, HepG2, RS-4;11, HT-29, NUGC-4, and PC-3, respectively.

Hep G2 = test: MTT Cell Proliferation Assay, Hep G2; assay type: cell-based, human; conditions: 120 hours of exposure
Source text: as §1, §2

HT-29 = test: MTT Cell Proliferation Assay, HT-29; assay type: cell-based, human; conditions: 120 hours of exposure
Source text: as §1, §2

NUGC-4 = test: MTT Cell Proliferation Assay, NUGC-4; assay type: cell-based, human; conditions: 120 hours of exposure
Source text: as §1, §2

PC-3 = test: MTT Cell Proliferation Assay, PC-3; assay type: cell-based, human; conditions: 120 hours of exposure
Source text: as §1, §2

MV-4-11 = test: MTT Cell Proliferation Assay, MV-4-11; assay type: cell-based, human; conditions: 120 hours of exposure
Source text: as §1, §2

RS-4;11 = test: MTT Cell Proliferation Assay, RS-4;11; assay type: cell-based, human; conditions: 120 hours of exposure
Source text: as §1, §2

BKB2 receptor = target: T1, BKB2 receptor (Homo sapiens, UniProt P30411); test: Intracellular calcium release in CHO-K1/B2/Gα15 cells (FLIPR Calcium 4); assay type: cell-based; parameters: expressed in transfected cells; conditions: bradykinin positive control (10 uM in the method); mean+/−SD, n=2
T1 sequence (P30411 1-391): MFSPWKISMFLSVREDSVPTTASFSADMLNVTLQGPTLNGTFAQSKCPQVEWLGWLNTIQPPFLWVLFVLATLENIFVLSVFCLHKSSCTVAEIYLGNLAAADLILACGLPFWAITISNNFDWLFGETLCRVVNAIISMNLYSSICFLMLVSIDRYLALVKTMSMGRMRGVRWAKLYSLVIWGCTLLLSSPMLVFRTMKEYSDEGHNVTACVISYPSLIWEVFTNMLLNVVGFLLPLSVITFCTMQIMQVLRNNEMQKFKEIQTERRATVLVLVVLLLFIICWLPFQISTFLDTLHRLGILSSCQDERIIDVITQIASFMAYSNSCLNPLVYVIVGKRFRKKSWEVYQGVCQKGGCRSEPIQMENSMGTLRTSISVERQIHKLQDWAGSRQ
Experimental: A stable CHO cell line expressing the human BKB2 receptor (CHO-K1/B2/Gα15) was used for the screening. The antibody was diluted to five different concentrations, from 0.5 mg/ml, via three-fold dilution increments, and screened on duplicate cell samples.
Expression and functional activity of the human BKB2 receptor in the CHO-K1/B2/Gα15 cell line were validated by exposure to the positive control, bradykinin.
To perform the assay, CHO-K1/B2/Gα15 cells were seeded in wells of a 384-well black-wall, clear-bottom plate at a density of 20,000 cells per well in 20 μL of growth medium 20 hours prior to the day of experiment, and maintained at 37° C./5% CO2. 20 μL of dye-loading solution (FLIPR™ Calcium 4 assay kit, Molecular Devices, Sunnyvale, Calif.) was added into each well and the plate was placed into a 37° C. incubator for 60 minutes, followed by 15 minutes at room temperature. The total reading time was 120 sec. After a 20-second reading to establish the baseline, the antibody or agonist were added to selected wells and the fluorescence signal was captured for another 100 seconds (21 s to 120 s). Readings from wells containing cells stimulated with assay buffer (0.03% Na3N PBS) containing 1% DMSO were chosen as the background values for screening; readings from wells containing cells stimulated with the agonist bradykinin (at 10 uM) were chosen as the positive control.

[1] = target: human bradykinin B2 receptor (BKB2R) (human) (UniProt P30411); test: cell-based or functional assay
[2] = target: T2, human BKB2R-derived epitope peptide (SEQ ID NO:73), PEG-biotin (human, also: PEG-biotin, site not given here); test: BLI (Octet), peptide-PEG-biotin on streptavidin sensor, antibody 250 nM
T2 construct: also called immunogenic human BKB2R peptide fragment
T2 peptide: KEYSDEGHNVTAC
Experimental: (§3) For the Octet study, antibodies were analyzed by kinetic titration of the antibodies. Antibodies were prepared in kinetic buffer (0.001 M phosphate buffered saline (NaCl 0.0138 M; KCl-0.00027 M); pH 7.4, at 25° C., 0.1 mg/ml BSA, 0.002% Tween and 0.005% Sodium Azide) followed by 1:2 serial dilutions.
(§4) Sensor Prep: Streptavidin biosensors (FortéBio Inc, Menlo Park, Calif.) were coated by incubation in a solution containing a peptide ([…]-PEG-biotin) (Biosyn, Lewisville, Tex.) at 50 μg/ml (300 seconds/1000 rpm shaking). 96 well half-volume plates were used for testing. 90 μl of sample was plated per well. Sensors were allowed to equilibrate to baseline in kinetic buffer (60 seconds/1000 rpm). The sensors were then placed into the various antibody dilutions to allow binding (association) to the probe for 500 seconds/1000 rpm, and measurements were taken. The sensors were then moved into kinetic buffer without antibody for dissociation (500 seconds/1000 rpm), and measurements were taken. Octet system software calculated kinetic constants for on rate/off rate/affinity.
(§5) For test humanized monoclonal antibodies, the highest concentration used was 500 nM followed by 1:2 dilutions. Each concentration was tested twice. The HC and LC represented the mouse original 5F12G1 VH and VL sequences.

[3] = target: T2, human BKB2R-derived epitope peptide …; test: BLI (Octet), peptide-PEG-biotin on streptavidin sensor, antibody 500 nM
Experimental: as §3, §4, §5

[4] = target: T2, human BKB2R-derived epitope peptide …; test: BLI (Octet), peptide-PEG-biotin on streptavidin sensor, antibody 500 nM; antibody 500 nM (the 250 nM row r17 gives 4.41E-07 M)
Experimental: as §3, §4, §5

[5] = target: T3, human BKB2R-derived epitope peptide, SE ID NO:73 (Homo sapiens, UniProt P30411); test: ForteBio Octet binding kinetics to the BKB2R epitope peptide
T3 construct: purchased Biosyn, Lewisville, Tex
Experimental: Proteins corresponding to all combinations of humanized or chimeric (5F12G1 VH and VL on human IgG2 backbone) antibodies were tested for binding to the human BKB2R-derived epitope peptide, SE ID NO:73.
A ForteBio (Menlo Park, Calif., USA) Octet® platform was used to analyze the binding affinities and binding characteristics of the humanized monoclonal antibodies to the peptide epitope (SEQ ID NO:73) and compared to the original mouse monoclonal 5F12G1. This platform employed label-free technology for measuring biomolecular interactions by optical analysis of the interference pattern of white light reflected from two surfaces: a layer of immobilized protein on the biosensor tip, and an internal reference layer. Any change in the number of molecules bound to the biosensor tip caused a shift in the interference pattern that was measured in real-time. Binding specificity, and rates of association and dissociation were monitored.
as §3, §4
[…] […] Each concentration was tested twice. The HC and LC represented the mouse original 5F12G1 VH and VL sequences.

ZDF fa/fa rats = test: Oral glucose tolerance test in ZDF fa/fa rats, humanized mAbs; assay type: in vivo, rat; conditions: 0.2 mg/kg s.c.; order: H38/L39, H37/L38, L2/H2, H38/L38, H37/L37, H38/L38, H39/137 [sic], H39/L39, H37/L37, H39/L38, H37/L39, L1/H1
Source text: This example describes evaluation of mouse mAb 5F12G1 and its twelve humanized clones in Zucker Diabetic fatty (ZDF fa/fa) rats for effects on insulin sensitivity in animals. Zucker Diabetic Rats develop symptoms similar to type 2 diabetes and are genetically resistant to insulin. […] Therefore, the Zucker rat is a good model to test the ability of the monoclonal antibody to increase insulin sensitivity, especially in an OGTT.
Male ZDF fa/fa rats were obtained from Charles River (Kingston, ON). Upon arrival, rats were ten weeks of age. The rats were housed individually per cage in a room with a photo cycle of 12 hours of light and 12 hours of dark and an ambient temperature of 70-72° F. and fed on regular rodent diet and water ad libitum. After seven days of acclimatization, rats were grouped into fourteen groups of three rats per group (Table 10).
Oral Glucose Tolerance Test. An oral glucose tolerance test (OGTT) was performed on overnight fasted (16 hours) rats. Rats received subcutaneously administered humanized mAbs, mouse mAb 5F12G1 (positive control) and PBS (vehicle control) at a dose of 0.2 mg/kg body weight, thirty minutes prior to glucose administration. D-Glucose was prepared in distilled water and administered orally at 2 g/kg body weight. Blood glucose levels were measured before administration of humanized mAbs, 5F12G1 or vehicle (t=−30 minutes) and just before glucose loading (0 minute), and at timepoints of 30, 60, 90 and 120 minutes, using Accu-chek™ glucose meter.

Which results are given for `N.N.[Cl][Pt][Cl]` [Cisplatin, cisplatin]?
EC 50 Values (ng/ml) BxPC-3 (BxPC-3): 204 ng/mL; EC50 (BxPC-3; read-out: EC 50 BxPC-3, value in brackets): 700 nM; EC 50 Values (ng/ml) Hep G2 (Hep G2): 239 ng/mL; EC50 (Hep G2; read-out: EC 50 Hep G2, value in brackets): 800 nM; EC 50 Values (ng/ml) HT-29 (HT-29): 698 ng/mL; EC50 (HT-29; read-out: EC 50 HT-29, value in brackets): 2300 nM; EC 50 Values (ng/ml) NUGC-4 (NUGC-4): 1200 ng/mL; EC50 (NUGC-4; read-out: EC 50 NUGC-4, value in brackets): 4100 nM; EC 50 Values (ng/ml) PC-3 (PC-3): 753 ng/mL; EC50 (PC-3; read-out: EC 50 PC-3, value in brackets): 2500 nM; EC 50 Values (ng/ml) MV-4-11 (MV-4-11): 347 ng/mL; EC50 (MV-4-11; read-out: EC 50 MV-4-11, value in brackets): 1200 nM; EC 50 Values (ng/ml) RS-4;11 (RS-4;11): 344 ng/mL; EC50 (RS-4;11; read-out: EC 50 RS-4;11, value in brackets): 1100 nM

How did the percentage of activation (BKB2 receptor) turn out when RPPGFSPFR [bradykinin] was run?
Its percentage of activation is 93.1+/−5.7%.

What does the source list for “bradykinin (from UniProt P01042 381-389) (peptide)”?
ED50 (intracellular calcium release, FLIPR, CHO-K1/B2/Gα15 cells) [1]: 0.95 nm/l; percentage of activation (intracellular calcium release, FLIPR, CHO-K1/B2/Gα15 cells) [1]: 93.1%

B1: humanized anti-BKB2R antibody L1/H1 (antibody, human IgG2, kappa, V domains shown)
VH: EVQLVESGGGLVQPGGSLRLSCAASGFTFSDYWMSWVRQAPGKGLEWVAEIRLKSDNYATHYAESVKGRFTISRDNAKNSLYLQMNSLRAEDTAVYYCTRDYYAMEYWGQGTLVTVSS
VL: DIVMTQSPLSLPVTPGEPASISCRSSQTIVHSNGKTYLEWYLQKPGQSPQLLIYKVSNRFSGVPDRFSGSGSGTDFTLKISRVEAEDVGVYYCFQASHVPYTFGQGTKLEIKR
notes: also called H1/L1
Which results are given for B1?
Kd [2]: 441 nM; Max Response [2]: 0.286; koff [2]: 0.701 s⁻¹; kon [2]: 1.59e+06 M⁻¹ s⁻¹; Max Response [3]: 0.216; koff [3]: 0.942 s⁻¹; kon [3]: 404000 M⁻¹ s⁻¹; Kd [4]: 2330 nM

B2: H38/L39: humanized anti-BKB2R mAb, heavy chain H38 (SEQ ID NO:6), light chain L39 (SEQ ID NO:12) (antibody, V domains shown)
VH: EVQLLESGGGLVQPGGSLKLSCAVSGFTFSDYWMSWVRQAPGKGLEWVSEIRLKSDNYATHYADSVKGRFTISRDDSKNTLYLQMNSLRAEDTAVYYCTRDYYAMEYWGQGTLVTVSS
VL: DVVMTQTPLSLSVTPGQPASISCKSSQTIVHSNGKTYLEWYLQKPGQSPQLLIYKVSNRFSGVPDRFSGSGSGTDFTLKISRVEAEDVGVYYCFQASHVPYTFGQGTKLEIK
modifications: Humanized H38 Heavy Chain Variable Region VH; Humanized L39 Light Chain Region VL
For B2, which “kdis” value ([5]; Conc. 500 nM) is on record?
Its value is 106 s⁻¹.

And the “kon” value ([5]; Conc. 500 nM)?
Its value is 1.14e+09 M⁻¹ s⁻¹.

And the “binding compared with the original mouse monoclonal antibody” value ([5]; Octet, epitope peptide)?
The value was “stronger binding (lower KD)”.

And the “order of effect on the decrease in AUC of blood glucose” value (ZDF fa/fa rats)?
Its value is “higher”.
